For this assay, the system named is IL-1β secretion, THP-1 cells. The assay can be described thus: IL-1β secretion assay in PMA-differentiated THP-1 cells stimulated with LPS and nigericin (ELISA readout). The assay is classed as cell-based. As to conditions: 25 ng/mL LPS then nigericin. The method in brief: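 THP-1 cells differentiated with 5 ng/mL PMA for 40 h, primed in serum-free medium with 25 ng/mL LPS for 2 h, then compound (0.5% DMSO) for 1 h before nigericin for 2 h at 37°C. Supernatant IL-1β quantified by ELISA; normalized to high (LPS + 5 µM nigericin) and low (LPS only) controls.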

Where [1] appears, read: Homo sapiens, THP-1, inhibition of IL-1β secretion, class column of Table 3.
[2] abbreviates: Homo sapiens, THP-1, inhibition of IL-1β secretion, numeric column of Table 3.

For the compound `CC(C)c1nn(CC(=O)Nc2ncncc2F)c(=O)c2cc(C(F)(F)F)ccc12` [Example 88, N-(5-fluoropyrimidin-4-yl)-2-[1-oxo-4-propan-2-yl-7-(trifluoromethyl)phthalazin-2-yl]acetamide], the IC50 (as a rule, the concentration needed to halve the response being measured) runs as follows: under setting [1], > 15000 nM; under setting [2], > 50000 nM.

For `CC(C)c1nn(CC(=O)NC2CCCOC2)c(=O)c2ccc(Br)cc12` (stereo not drawn) [Example 125, 2-(6-bromo-1-oxo-4-propan-2-ylphthalazin-2-yl)-N-(oxan-3-yl)acetamide], the IC50 was < 10000 nM under setting [1] and 3060 nM under setting [2].

For `CC(C)c1nn(CC(=O)Nc2nc(Cl)ccc2F)c(=O)c2ccc(Br)cc12` [Example 36, 2-(6-bromo-1-oxo-4-propan-2-ylphthalazin-2-yl)-N-(6-chloro-3-fluoropyridin-2-yl)acetamide], the IC50 under setting [1] is < 10000 nM and the midpoint of inhibition under setting [2], the IC50, lay at 2800 nM.

Take `CC(C)c1nn(CC(=O)Nc2ccc3cnn(C)c3c2)c(=O)c2ccc(Br)cc12` [Example 61, 2-(6-bromo-1-oxo-4-propan-2-ylphthalazin-2-yl)-N-(1-methylindazol-6-yl)acetamide]: the half-inhibitory concentration (IC50) by setting is: under setting [1], < 10000 nM; under setting [2], 943 nM.

Take `CCN1CC(NC(=O)Cn2nc(C(C)C)c3cc(Br)ccc3c2=O)CC(F)(F)C1` (stereo not drawn) [Example 12]: the 50% inhibitory concentration (IC50) is < 10000 nM under setting [1] and 2590 nM under setting [2].

For the compound `O=C(Cn1nc(CC(F)(F)F)c2cc(Br)ccc2c1=O)Nc1ncncc1F` [Example 91, 2-[6-bromo-1-oxo-4-(2,2,2-trifluoroethyl)phthalazin-2-yl]-N-(5-fluoropyrimidin-4-yl)acetamide], the IC50 under setting [1] was < 10000 nM and the IC50 under setting [2] amounted to 489 nM.

In the case of `CC(F)(F)c1nn(CC(=O)Nc2ncncc2F)c(=O)c2ccc(Br)cc12` [Example 13, 2-[6-bromo-4-(1,1-difluoroethyl)-1-oxophthalazin-2-yl]-N-(5-fluoropyrimidin-4-yl)acetamide], the IC50 by setting is: under setting [1], < 10000 nM; under setting [2], 2320 nM.

`CC(C)c1nn(CC(=O)NCC2COCCN2C)c(=O)c2ccc(Br)cc12` (stereo not drawn) [Example 58, 2-(6-bromo-1-oxo-4-propan-2-ylphthalazin-2-yl)-N-[(4-methylmorpholin-3-yl)methyl]acetamide]: the IC50 is < 10000 nM under setting [1] and 3990 nM under setting [2].

In the case of `CCN1CCC[C@@H](NC(=O)Cn2nc(C(F)(F)F)c3cc(Br)ccc3c2=O)C1` [Example 89, 2-[6-bromo-1-oxo-4-(trifluoromethyl)phthalazin-2-yl]-N-[(3R)-1-ethylpiperidin-3-yl]acetamide], the 50% inhibitory concentration (IC50) is, setting by setting: under setting [1], < 10000 nM; under setting [2], 764 nM.

As for `COc1nn(CC(=O)Nc2ncc(F)cn2)c(=O)c2ccc(C(F)(F)F)cc12` [Example 146, N-(5-fluoropyrimidin-2-yl)-2-[4-methoxy-1-oxo-6-(trifluoromethyl)phthalazin-2-yl]acetamide], the 50% inhibitory concentration (IC50) reads like this: under setting [1], < 10000 nM; under setting [2], 461 nM.

In the case of `CC(C)c1nn(CC(=O)NC23CC(F)(C2)C3)c(=O)c2ccc(Br)cc12` [Example 118, 2-(6-bromo-1-oxo-4-propan-2-ylphthalazin-2-yl)-N-(3-fluoro-1-bicyclo[1.1.1]pentanyl)a cetamide], the half-inhibitory concentration (IC50) is < 10000 nM under setting [1] and 737 nM under setting [2].

In the case of `CC(C)c1nn(CC(=O)Nc2ncncc2F)c(=O)c2ccc(C(F)(F)F)nc12` [Example 24, N-(5-fluoropyrimidin-4-yl)-2-[5-oxo-8-propan-2-yl-2-(trifluoromethyl)pyrido[2,3-d]pyridazin-6-yl]acetamide], the concentration for half-maximal inhibition (IC50) was < 10000 nM under setting [1] and 138 nM under setting [2].

In the case of `CC(C)c1nn(CC(=O)Nc2ncncc2F)c(=O)c2ccc(Br)cc12` [Example 6, 2-(6-Bromo-4-isopropyl-1-oxophthalazin-2(1H)-yl)-N-(5-fluoropyrimidin-4-yl)acetamide], the IC50 under setting [1] is < 10000 nM and the half-maximal inhibitory concentration (IC50) under setting [2] amounted to 121 nM.

For the compound `N#Cc1cnc(NC(=O)Cn2nc(C(F)F)c3c(F)c(Br)ccc3c2=O)c(F)c1` [Example 28, 2-[6-bromo-4-(difluoromethyl)-5-fluoro-1-oxophthalazin-2-yl]-N-(5-cyano-3-fluoropyridin-2-yl)acetamide], the IC50 is < 10000 nM under setting [1] and 307 nM under setting [2].

On to `O=C(Cn1nc(C(F)(F)F)c2ccc(Br)cc2c1=O)Nc1ncncc1F` [Example 132, 2-[7-bromo-1-oxo-4-(trifluoromethyl)phthalazin-2-yl]-N-(5-fluoropyrimidin-4-yl)acetamide], for which the IC50 under setting [1] was > 15000 nM and the IC50 under setting [2] is > 50000 nM.

With `CC(C)c1nn(CC(=O)Nc2ncncc2F)c(=O)c2cc(F)c(Br)cc12` [Example 85, 2-(6-bromo-7-fluoro-1-oxo-4-propan-2-ylphthalazin-2-yl)-N-(5-fluoropyrimidin-4-yl)acetamide], the half-maximal inhibitory concentration (IC50) runs as follows: under setting [1], < 10000 nM; under setting [2], 382 nM.

As for `CC(C)c1nn(CC(=O)Nc2ccnn2C2COC2)c(=O)c2ccc(Br)cc12` [Example 67, 2-(6-bromo-1-oxo-4-propan-2-ylphthalazin-2-yl)-N-[2-(oxetan-3-yl)pyrazol-3-yl]acetamide], the half-inhibitory concentration (IC50) was < 10000 nM under setting [1] and 1030 nM under setting [2].

For the compound `N#Cc1cnc(NC(=O)Cn2nc(OC3CC3)c3cc(Br)ccc3c2=O)c(F)c1` [Example 151], the IC50 was < 10000 nM under setting [1] and 491 nM under setting [2].

Take `CC(C)c1nn(CC(=O)NCC2CCCO2)c(=O)c2ccc(Br)cc12` (stereo not drawn) [Example 130, 2-(6-bromo-1-oxo-4-propan-2-ylphthalazin-2-yl)-N-(oxolan-2-ylmethyl)acetamide]: the IC50 is < 10000 nM under setting [1] and 2920 nM under setting [2].

Consider `C[C@H]1C[C@@H](Oc2nn(CC(=O)Nc3ncc(F)cn3)c(=O)c3ccc(Br)cc23)C1` [Example 157, 2-[6-bromo-4-(3-cis-methylcyclobutoxy)-1-oxo-phthalazin-2-yl]-N-(5-fluoropyrimidin-2-yl)acetamide], for which the IC50 reads like this: under setting [1], < 10000 nM; under setting [2], 139 nM.

With `CC(C)c1nn(CC(=O)NCC2CCCOC2)c(=O)c2ccc(Br)cc12` (stereo not drawn) [Example 57, 2-(6-bromo-1-oxo-4-propan-2-ylphthalazin-2-yl)-N-(oxan-3-ylmethyl)acetamide], the 50% inhibitory concentration (IC50) reads like this: under setting [1], < 10000 nM; under setting [2], 4400 nM.

With `O=C(Cn1nc(OC2CC2)c2cc(Br)ccc2c1=O)Nc1ncc(F)cn1` [Example 150, 2-(6-bromo-4-cyclopropyloxy-1-oxophthalazin-2-yl)-N-(5-fluoropyrimidin-2-yl)acetamide], the concentration for half-maximal inhibition (IC50) is, setting by setting: under setting [1], < 10000 nM; under setting [2], 127 nM.

As to `CC(C)c1nn(CC(=O)N[C@@H]2CCCN(C3CCC3)C2)c(=O)c2ccc(Br)cc12` [Example 106, 2-(6-bromo-1-oxo-4-propan-2-ylphthalazin-2-yl)-N-[(3R)-1-cyclobutylpiperidin-3-yl]acetamide], the IC50 runs as follows: under setting [1], < 10000 nM; under setting [2], 58 nM.

For the compound `CC(C)c1nn(CC(=O)N[C@@H]2CCCN(C3CC3)C2)c(=O)c2ccc(Br)cc12` [Example 5, (R)(6-Bromo-4-Isopropyl-1-Oxophthalazin-2(1H)-yl)-N-(1-Cyclopropylpiperidin-3-yl)Acetamide], the half-maximal inhibitory concentration (IC50) is, setting by setting: under setting [1], < 10000 nM; under setting [2], 46 nM.

With `CCN1CCOCC(NC(=O)Cn2nc(C(C)C)c3cc(Br)ccc3c2=O)C1` (stereo not drawn) [Example 159, 2-(6-bromo-1-oxo-4-propan-2-ylphthalazin-2-yl)-N-(4-ethyl-1,4-oxazepan-6-yl)acetamide], the IC50 under setting [1] was < 10000 nM and inhibition under setting [2] was half-maximal at 4760 nM (IC50).

Take `CC(O)c1nn(CC(=O)Nc2ncccn2)c(=O)c2ccc(Br)cc12` (single isomer, unassigned) [Example 102, 2-(6-bromo-4-(1-hydroxyethyl)-1-oxophthalazin-2(1H)-yl)-N-(pyrimidin-2-yl)acetamide]: the IC50 by setting is: (inhibition of IL-1β secretion, class column of Table 3) < 10000 nM; (inhibition of IL-1β secretion, numeric column of Table 3) 2440 nM.

`CC(C)c1nn(CC(=O)NC2CCCC2(F)F)c(=O)c2ccc(Br)cc12` (stereo not drawn) [Example 46, 2-(6-bromo-1-oxo-4-propan-2-ylphthalazin-2-yl)-N-(2,2-difluorocyclopentyl)acet amide]: the IC50 is, setting by setting: under setting [1], < 10000 nM; under setting [2], 1170 nM.

Turning to `CC(C)c1nn(CC(=O)Nc2ncccn2)c(=O)c2ccc(Br)cc12` [Example 39, 2-(6-bromo-1-oxo-4-propan-2-ylphthalazin-2-yl)-N-pyrimidin-2-ylacetamide], the half-maximal inhibitory concentration (IC50) is < 10000 nM under setting [1] and 54 nM under setting [2].

Take `CC(Oc1nn(CC(=O)Nc2ncc(F)cn2)c(=O)c2ccc(Br)cc12)C1CC1` (stereo not drawn) [Example 169]: the IC50 under setting [1] was < 10000 nM and the half-maximal inhibitory concentration (IC50) under setting [2] was 2290 nM.

As to `CC(C)c1nn(CC(=O)Nc2ncc(C(F)(F)F)cc2F)c(=O)c2ccc(Br)cc12` [Example 41, 2-(6-bromo-1-oxo-4-propan-2-ylphthalazin-2-yl)-N-[3-fluoro-5-(trifluoromethyl)pyridin-2-yl]acetamide], the IC50 was < 10000 nM under setting [1] and 163 nM under setting [2].

`CC(C)c1nn(CC(=O)Nc2ccnn2C)c(=O)c2ccc(Br)cc12` [Example 49, 2-(6-bromo-1-oxo-4-propan-2-ylphthalazin-2-yl)-N-(2-methylpyrazol-3-yl)acetamide]: the IC50 runs as follows: under setting [1], < 10000 nM; under setting [2], 1700 nM.

In the case of `Cc1ncc(F)c(NC(=O)Cn2nc(C(C)C)c3cc(Br)ccc3c2=O)n1` [Example 31, 2-(6-bromo-1-oxo-4-propan-2-ylphthalazin-2-yl)-N-(5-fluoro-2-methylpyrimidin-4-yl)acetamide], the IC50 by setting is: under setting [1], < 10000 nM; under setting [2], 1320 nM.

Turning to `CC(C)c1nn(CC(=O)Nc2ccn(C)n2)c(=O)c2ccc(Br)cc12` [Example 69, 2-(6-bromo-1-oxo-4-propan-2-ylphthalazin-2-yl)-N-(1-methylpyrazol-3-yl)acetamide], the IC50 is < 10000 nM under setting [1] and 1710 nM under setting [2].

(Values after patent publication US20230357162A1, “COMPOUNDS, COMPOSITIONS AND METHODS” (Denali Therapeutics Inc., priority 2020, published 2023).)
